Patent US11666558B2, “Methods of treating intraocular pressure with activators of Tie-2” (EyePoint Pharmaceuticals, Inc., priority 2015, dated 2023)
“And” between values parts separate entries of the source, which are not always exact repeats. Equal values may be shown once. Where a name gives a salt, the structure may show the parent alone. Read-outs that look alike come from different tables or passages of the source.

Assay: Ocular tissue concentrations (aqueous humor, vitreous humor, iris, retina, choroid, cornea) after topical ocular, subcutaneous and intravitreal administration
Type: in vivo, New Zealand White rabbits
Settings: for Average Peak Concentration, Vitreous Humor: solution
Procedure: To measure the concentration of Compound 1 in plasma and ocular tissues following topical ocular, subcutaneous, and intravitreal administration, New Zealand White rabbits were administered Compound 1, and plasma and ocular samples were collected at pre-determined time points. Compound 1 formulations were prepared fresh on each day of dosing.
Ocular tissue samples from both eyes of each animal were collected and weights were recorded. Plasma and ocular tissue sample concentrations of Compound 1 were determined by LC-MS/MS.
New Zealand White rabbits weighing 2.5 to 3.5 kg were used on this study. Rabbits were housed one per cage. Animals were not fasted and only healthy animals with no ocular illness were used. Two rabbits per group were sacrificed at each of four ocular tissue sampling time points for a total of eight rabbits per group.
Animals were anesthetized for ocular (topical) and intravitreal dosing following the 12IA7 IACUC protocol. Each rabbit received a bolus dose of test formulation either via topical ocular administration 3 times daily on Days 1 and 2 (at 0, 6, and 12 hours), and once on Day 3 (at 0 hours) into both eyes; via intravitreal administration into both eyes once on Day 1 (at 0 hours); or via subcutaneous administration 2 times daily on Days 1 and 2 (at 0 and 8 hours) and once daily on Day 3 (at 0 hours). Doses were given within an approximately 1 hour window each day where applicable.
On Day 1, for intravitreal administration, or on Day 3, for topical ocular and subcutaneous administration, at the appropriate ocular tissue collection time points, animals were euthanized and both eyes were enucleated immediately. Following enucleation, each eye was rinsed with phosphate-buffered saline. Ocular tissue samples from both eyes of each animal were collected at predetermined time points and weights were recorded. All the samples were frozen immediately on dry ice, and stored at −60° C. to −80° C. pending bioanalysis.
An LC-MS/MS method was developed for the determination of Compound 1 in rabbit aqueous tissues (plasma, aqueous and vitreous humor) and solid ocular tissue samples. A pre-study standard curve was analyzed to determine the specificity, range, and lower limit of quantitation of the method. Plasma and tissue homogenate study samples were extracted and analyzed. All the samples were treated identically to the standards.
One eight-point standard curve was used in each analytical batch. To be accepted, each batch must have had at least five of eight standards with accuracy within ±20% of nominal, except at the lower limit of quantification (LLOQ), where ±25% was acceptable.
Concentration versus time data is plotted in FIGS. 3-16. All data are expressed as ng/g of the free drug. Samples that were below the limit of quantitation (0.2 ng/mL) were not used in the calculation of averages.

[1] = Group 1 topical ocular 1.2 mg/eye, 2.0 hr
[2] = Group 1 topical ocular 1.2 mg/eye, 4.0 hr
[3] = Group 2 subcutaneous 5 mg/kg, 0.5 hr
[4] = Group 2 subcutaneous 5 mg/kg, 1.0 hr
[5] = Group 2 subcutaneous 5 mg/kg, 2.0 hr
[6] = Group 2 subcutaneous 5 mg/kg, 4.0 hr
[7] = Group 4 intravitreal 2.5 mg per eye, 6.0 hr
[8] = Group 4 intravitreal 2.5 mg per eye, 24 hr
[9] = Group 4 intravitreal 2.5 mg per eye, 48 hr
[10] = Group 4 intravitreal 2.5 mg per eye, 72 hr

Average Peak Concentration, Vitreous Humor (Group 1 topical ocular 0.70 mg/kg/dose): 0.61 ng/g
aqueous humor Conc., individual eyes (OD, OS) (Group 1 topical ocular 1.2 mg/eye, 0.5 hr): 3.44 ng/mL and 1.78 ng/mL and 12.8 ng/mL
aqueous humor Conc., individual eyes (OD, OS) (Group 1 topical ocular 1.2 mg/eye, 1.0 hr): 3.55 ng/mL and 3.05 ng/mL
aqueous humor Conc., individual eyes (OD, OS) [1]: 2.46 ng/mL and 14.5 ng/mL and 15.8 ng/mL
vitreous humor Conc., individual eyes (OD, OS) [1]: 1.14 ng/mL and 0.950 ng/mL
Average Peak Concentration, Vitreous Humor (Group 2 subcutaneous 5 mg/kg/dose): 0.83 ng/g
aqueous humor Conc., individual eyes (OD, OS) [5]: 0.498 ng/mL and 0.453 ng/mL
aqueous humor Conc., individual eyes (OD, OS) [8]: 5190 ng/mL and 6810 ng/mL
aqueous humor Conc., individual eyes (OD, OS) [9]: 1510 ng/mL and 2330 ng/mL and 1970 ng/mL
concentration at 6 hr (New Zealand White, rabbit, aqueous humor, other: intravitreal, 2.5 mg per eye, Group 4 intravitreal 2.5 mg per eye, 6.0 hr, read-out: aqueous humor Average Conc.): 80600 ng/g
concentration at 6 hr (New Zealand White, rabbit, aqueous humor, other: intravitreal, 2.5 mg per eye, Group 4 intravitreal 2.5 mg per eye, 6.0 hr, read-out: aqueous humor Conc., individual eyes (OD, OS)): 90600 ng/mL
concentration at 24 hr (New Zealand White, rabbit, aqueous humor, other: intravitreal, 2.5 mg per eye, Group 4 intravitreal 2.5 mg per eye, 24 hr, read-out: aqueous humor Average Conc.): 9000 ng/g
concentration at 24 hr (New Zealand White, rabbit, aqueous humor, other: intravitreal, 2.5 mg per eye, Group 4 intravitreal 2.5 mg per eye, 24 hr, read-out: aqueous humor Conc., individual eyes (OD, OS)): 4700 ng/mL
concentration at 48 hr (New Zealand White, rabbit, aqueous humor, other: intravitreal, 2.5 mg per eye, Group 4 intravitreal 2.5 mg per eye, 48 hr, read-out: aqueous humor Average Conc.): 1960 ng/g
concentration at 48 hr (New Zealand White, rabbit, aqueous humor, other: intravitreal, 2.5 mg per eye, Group 4 intravitreal 2.5 mg per eye, 48 hr, read-out: aqueous humor Conc., individual eyes (OD, OS)): 2040 ng/mL
concentration at 72 hr (New Zealand White, rabbit, aqueous humor, other: intravitreal, 2.5 mg per eye, Group 4 intravitreal 2.5 mg per eye, 72 hr, read-out: aqueous humor Average Conc.): 34.5 ng/g
concentration at 0.5 h (New Zealand White, rabbit, aqueous humor, subcutaneous, 5 mg/kg, Group 2 subcutaneous 5 mg/kg, 0.5 hr, read-out: aqueous humor Average Conc.): 26.1 ng/g
concentration at 1 h (New Zealand White, rabbit, aqueous humor, subcutaneous, 5 mg/kg, Group 2 subcutaneous 5 mg/kg, 1.0 hr, read-out: aqueous humor Average Conc.): 3.3 ng/g
concentration at 2 h (New Zealand White, rabbit, aqueous humor, subcutaneous, 5 mg/kg, Group 2 subcutaneous 5 mg/kg, 2.0 hr, read-out: aqueous humor Average Conc.): 0.72 ng/g
concentration at 2 h (New Zealand White, rabbit, aqueous humor, subcutaneous, 5 mg/kg, Group 2 subcutaneous 5 mg/kg, 2.0 hr, read-out: aqueous humor Conc., individual eyes (OD, OS)): 0.581 ng/mL
concentration at 0.5 hr (New Zealand White, rabbit, aqueous humor, topical, 1.2 mg/eye, Group 1 topical ocular 1.2 mg/eye, 0.5 hr, read-out: aqueous humor Average Conc.): 45.8 ng/g
concentration at 1 hr (New Zealand White, rabbit, aqueous humor, topical, 1.2 mg/eye, Group 1 topical ocular 1.2 mg/eye, 1.0 hr, read-out: aqueous humor Average Conc.): 15 ng/g
concentration at 1 hr (New Zealand White, rabbit, aqueous humor, topical, 1.2 mg/eye, Group 1 topical ocular 1.2 mg/eye, 1.0 hr, read-out: aqueous humor Conc., individual eyes (OD, OS)): 4.03 ng/mL
concentration at 2 h (New Zealand White, rabbit, aqueous humor, topical, 1.2 mg/eye, Group 1 topical ocular 1.2 mg/eye, 2.0 hr, read-out: aqueous humor Average Conc.): 31.6 ng/g
Structure (SMILES): COC(=O)N[C@@H](Cc1ccccc1)C(=O)N[C@@H](Cc1ccc(NS(=O)(=O)O)cc1)c1csc(-c2cccs2)n1 [Compound 1 sodium salt]
aqueous humor Conc., individual eyes (OD, OS) [2]: 5.48 ng/mL and 5.61 ng/mL and 7.78 ng/mL and 14.1 ng/mL
vitreous humor Conc., individual eyes (OD, OS) [2]: 1.09 ng/mL and 2.20 ng/mL and 0.551 ng/mL
aqueous humor Conc., individual eyes (OD, OS) [3]: 23.5 ng/mL and 24.6 ng/mL and 18.0 ng/mL and 38.2 ng/mL
vitreous humor Conc., individual eyes (OD, OS) [3]: 1.03 ng/mL and 0.537 ng/mL and 0.981 ng/mL
aqueous humor Conc., individual eyes (OD, OS) [4]: 4.51 ng/mL and 1.84 ng/mL and 3.22 ng/mL and 3.63 ng/mL
vitreous humor Conc., individual eyes (OD, OS) [4]: 0.252 ng/mL and 0.766 ng/mL and 0.442 ng/mL and 0.337 ng/mL
vitreous humor Conc., individual eyes (OD, OS) [5]: BLOQ (Below the limit of quantitation (0.2 ng/mL))
aqueous humor Conc., individual eyes (OD, OS) [6]: BLOQ (Below the limit of quantitation (0.2 ng/mL))
vitreous humor Conc., individual eyes (OD, OS) [6]: BLOQ (Below the limit of quantitation (0.2 ng/mL))
aqueous humor Conc., individual eyes (OD, OS) [7]: 77100 ng/mL and 75300 ng/mL and 79300 ng/mL
vitreous humor Conc., individual eyes (OD, OS) [7]: 1450000 ng/mL and 1480000 ng/mL and 432000 ng/mL
vitreous humor Conc., individual eyes (OD, OS) [8]: 295000 ng/mL and 406000 ng/mL and 259000 ng/mL
vitreous humor Conc., individual eyes (OD, OS) [9]: 82300 ng/mL and 68600 ng/mL and 91900 ng/mL
aqueous humor Conc., individual eyes (OD, OS) [10]: 23.2 ng/mL and 16.1 ng/mL and 49.7 ng/mL and 49.0 ng/mL
vitreous humor Conc., individual eyes (OD, OS) [10]: 13500 ng/mL and 11700 ng/mL and 14100 ng/mL
